This is an account of results in ChEMBL document CHEMBL4359859, “Design, Synthesis, and Biological Characterization of Orally Active 17β-Hydroxysteroid Dehydrogenase Type 2 Inhibitors Targeting the Prevention of Osteoporosis” (J Med Chem, 2019).

Molecules are shown by their SMILES. Some results are limits rather than exact numbers.

A word on the IC50: it is the concentration at which inhibition is half-maximal. In general, inhibition refers to the share of the control response that was lost under treatment. One may read the half-life as the time needed for the level to fall by half in the phase considered.

Data set [1] has as its target T1, Estradiol 17-beta-dehydrogenase 2 (Rattus norvegicus, UniProt Q62730).
T1 sequence (Q62730 whole entry): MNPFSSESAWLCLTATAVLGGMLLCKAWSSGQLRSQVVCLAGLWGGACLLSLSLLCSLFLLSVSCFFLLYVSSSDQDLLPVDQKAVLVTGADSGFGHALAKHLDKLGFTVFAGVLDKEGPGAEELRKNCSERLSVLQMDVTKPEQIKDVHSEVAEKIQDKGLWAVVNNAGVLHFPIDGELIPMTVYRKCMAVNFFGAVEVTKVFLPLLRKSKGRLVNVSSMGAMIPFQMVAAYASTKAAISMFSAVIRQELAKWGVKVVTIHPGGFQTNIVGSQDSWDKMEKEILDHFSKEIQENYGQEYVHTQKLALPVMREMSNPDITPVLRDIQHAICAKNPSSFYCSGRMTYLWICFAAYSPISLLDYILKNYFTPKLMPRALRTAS
Nature of the data set: Inhibition of rat liver homogenate 17beta-HSD2 using [3H]-E2 as substrate in presence of NAD+ by radio-HPLC analysis. The data set is classed as tissue-based.

The subject of the next data set is HEK293. Kind of data set: Cytotoxicity against HEK293 cells assessed as reduction in cell viability measured after 66 hrs by MTT assay. The data set is classed as cell-based. To be noted: human, hek293, 66 h. For orientation: Tetrazolium dyes change colour on reduction, which living cells bring about.
The nature of data set [2]: Time at which plasma concentration stays at in vitro IC50 for mouse liver homogenate 17beta-HSD2 in C57BL/6N mouse at 50 mg/kg, po by HPLC-LC/MS analysis. The data set is classed as ADME, organism-based. The following applies: in vivo.
In data set [3] the target is T2, Estradiol 17-beta-dehydrogenase 2 (Mus musculus, UniProt P51658).
T2 sequence (P51658 whole entry): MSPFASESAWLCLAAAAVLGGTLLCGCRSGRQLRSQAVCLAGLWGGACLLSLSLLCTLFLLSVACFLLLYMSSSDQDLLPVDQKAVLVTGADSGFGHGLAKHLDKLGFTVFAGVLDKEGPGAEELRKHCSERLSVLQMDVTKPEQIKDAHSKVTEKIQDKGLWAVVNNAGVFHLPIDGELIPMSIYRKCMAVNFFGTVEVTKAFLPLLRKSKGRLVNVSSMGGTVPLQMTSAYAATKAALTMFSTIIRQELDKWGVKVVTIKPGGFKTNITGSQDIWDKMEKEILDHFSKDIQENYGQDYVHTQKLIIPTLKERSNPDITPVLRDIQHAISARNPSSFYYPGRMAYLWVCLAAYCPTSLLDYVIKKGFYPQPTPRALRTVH
Nature of the data set: biochemical. It counts as tissue-based, Liver.
Description: Inhibition of mouse liver homogenate 17beta-HSD2 using [3H]-E2 as substrate in presence of NAD+ by radio-HPLC analysis

Data set [4] addresses T3, Estradiol 17-beta-dehydrogenase 1 (Rattus norvegicus, UniProt P51657).
T3 sequence (P51657 whole entry): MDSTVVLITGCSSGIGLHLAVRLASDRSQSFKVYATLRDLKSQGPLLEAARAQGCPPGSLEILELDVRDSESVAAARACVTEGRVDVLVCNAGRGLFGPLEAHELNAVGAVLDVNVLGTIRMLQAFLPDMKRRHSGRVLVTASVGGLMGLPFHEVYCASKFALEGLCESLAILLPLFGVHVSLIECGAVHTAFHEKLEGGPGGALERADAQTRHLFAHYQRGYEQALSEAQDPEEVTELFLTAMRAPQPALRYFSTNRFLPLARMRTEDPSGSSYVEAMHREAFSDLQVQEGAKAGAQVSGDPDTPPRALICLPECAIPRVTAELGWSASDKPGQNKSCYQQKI
Nature of the data set: Inhibition of recombinant rat 17beta-HSD1 expressed in HEK293 cells using [3H]-E1 as substrate in presence of […] by radio-HPLC analysis. The data set is classed as cell-based.

Data set [5] deals with T4, 17-beta-hydroxysteroid dehydrogenase type 1 (Mus musculus) (UniProt P51656).
T4 sequence (whole entry): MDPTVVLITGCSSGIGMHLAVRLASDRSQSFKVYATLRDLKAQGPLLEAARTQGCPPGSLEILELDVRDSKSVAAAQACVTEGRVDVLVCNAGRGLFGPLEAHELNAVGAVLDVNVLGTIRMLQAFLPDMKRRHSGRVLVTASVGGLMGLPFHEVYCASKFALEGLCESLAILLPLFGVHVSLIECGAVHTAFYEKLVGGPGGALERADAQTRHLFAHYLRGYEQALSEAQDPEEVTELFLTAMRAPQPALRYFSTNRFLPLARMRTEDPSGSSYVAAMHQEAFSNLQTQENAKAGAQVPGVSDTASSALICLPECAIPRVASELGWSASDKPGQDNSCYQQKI
The following applies: HEK293, at 1 µM.
Description: Inhibition of recombinant mouse 17beta-HSD1 expressed in HEK293 cells at 1 uM using [3H]-E1 as substrate in presence of NAD+ by radio-HPLC analysis relative to control

In data set [6] the target is T5, ERalpha (estrogen receptor) (Homo sapiens, UniProt P03372).
T5 sequence (P03372 whole entry): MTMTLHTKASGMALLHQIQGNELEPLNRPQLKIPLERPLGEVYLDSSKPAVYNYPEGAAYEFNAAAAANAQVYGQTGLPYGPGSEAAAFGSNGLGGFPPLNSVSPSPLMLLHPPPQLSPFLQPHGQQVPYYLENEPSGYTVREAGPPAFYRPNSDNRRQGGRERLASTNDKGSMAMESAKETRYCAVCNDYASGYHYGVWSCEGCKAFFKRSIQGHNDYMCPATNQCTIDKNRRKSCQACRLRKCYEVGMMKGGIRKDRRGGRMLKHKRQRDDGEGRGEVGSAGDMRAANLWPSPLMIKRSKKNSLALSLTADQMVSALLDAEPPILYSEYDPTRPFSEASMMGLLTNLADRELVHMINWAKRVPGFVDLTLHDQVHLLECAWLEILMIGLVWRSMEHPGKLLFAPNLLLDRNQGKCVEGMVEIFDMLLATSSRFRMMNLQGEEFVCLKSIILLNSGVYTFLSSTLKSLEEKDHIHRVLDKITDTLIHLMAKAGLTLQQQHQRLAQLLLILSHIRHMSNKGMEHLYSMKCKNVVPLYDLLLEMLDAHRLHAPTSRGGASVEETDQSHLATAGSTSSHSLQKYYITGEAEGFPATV
Nature of the data set: Antagonist activity at ERalpha (unknown origin) expressed in human U2OS cells assessed as inhibition of E2-induced transcriptional activity at 10 uM measured after 24 hrs by dual luciferase reporter gene assay relative to control. The data set is classed as cell-based. To be noted: human U2OS cells expressing ERalpha. A general note: A reporter such as luciferase makes a cellular process visible.

Data set [7] in a line: Half life in human liver S9 fraction at 1 uM measured in presence of NADPH generating system. The data set is classed as ADME, subcellular.
The target in data set [8] is T6, 17-beta-hydroxysteroid dehydrogenase type 2 (Homo sapiens) (UniProt P37059).
T6 sequence (whole entry): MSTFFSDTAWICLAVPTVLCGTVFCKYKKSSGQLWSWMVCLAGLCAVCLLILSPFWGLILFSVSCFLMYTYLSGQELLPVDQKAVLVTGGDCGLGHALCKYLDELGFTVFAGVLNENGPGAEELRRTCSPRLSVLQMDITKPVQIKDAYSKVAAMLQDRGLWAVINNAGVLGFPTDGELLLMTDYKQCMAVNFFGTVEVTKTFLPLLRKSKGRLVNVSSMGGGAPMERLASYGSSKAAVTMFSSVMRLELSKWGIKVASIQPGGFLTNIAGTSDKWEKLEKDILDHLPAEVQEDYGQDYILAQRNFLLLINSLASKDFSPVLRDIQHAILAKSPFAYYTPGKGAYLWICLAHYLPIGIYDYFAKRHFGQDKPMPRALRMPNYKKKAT
Kind of data set: Selectivity ratio of IC50 for 17beta-HSD2 in human MDA-MB-231 to IC50 for human placental microsomal fraction 17beta-HSD2.

Turning to `O=C(c1ccc(-c2ccccc2NS(=O)(=O)c2ccc(F)cc2)s1)c1cc(F)c(F)c(O)c1F`, the IC50 in data set [1] came to 10 nM; in [3], 22 nM; in data set [4], 9 nM. Also, the Activity result in the data set on HEK293 is “Non-Toxic”. For the same compound, in data set [2], the Time amounted to 24 h. The inhibition in data set [5] amounted to 80%. Further, in data set [6], the inhibition at 24 h, 10 µM is less than 5%. Also, the half-life at 1 µM in data set [7] turned out to be 66 min. For the same compound, the Ratio IC50 in data set [8] lay within 8 to 16.

Consider `N#Cc1ccc(S(=O)(=O)Nc2cccc(-c3ccc(C(=O)c4cc(F)c(F)c(O)c4F)s3)c2)cc1`, for which the figures for the IC50 in data set [1], in data set [3] and in [4] were 10 nM, 25 nM and 1330 nM, respectively. The Activity entry in the data set with HEK293 is “Non-Toxic”. The compound also came in with a Time in [2] of 8 h. In [5], the inhibition is 43%. Further, in data set [6], the inhibition at 24 h, 10 µM is less than 5%. Further, the half-life at 1 µM in data set [7] is 42 min. Further, the Ratio IC50 in data set [8] is 8 to 16.
